In publication PMC4900597, “Evaluation of the Effects of Pasireotide LAR Administration on Lymphocele Prevention after Axillary Node Dissection for Breast Cancer: Results of a Randomized Non-Comparative Phase 2 Study” (PLoS ONE, 2016):
Starred links: 1 amine or outer side, 2 acyl side, 3 side chain; linkers in the order of their positions; H or OH if unused. Non-standard residues stand in square brackets, D forms with d. Residues, ends and D or L forms follow the SMILES beside them. Groups on a side chain read outwards from the residue. *: point of attachment. Ethylenediamine = C(CN[*:2])N[*:1]; Hyp = O=C(O)[C@@H]1C[C@@H](O)CN1; Phg = N[C@H](C(=O)O)c1ccccc1; CO = O=C([*:1])[*:2]; Bn = c1ccc(C*)cc1

Assays:
[1] = system: sst1; details: ref [14]; cited from earlier work
From the text: (§1) The five somatostatin receptors (sst 1 to 5) are expressed in various organs under normal physiological conditions. Somatostatin analogs activate these receptors, which in turn reduce cell activity and inhibit hormone synthesis. Octreotide and lanreotide, which are currently used, have strong affinities for the sst2 receptor and moderate affinities, if any, for the other receptor types.

[2] = system: sst5; parameters: method as in PMID 11980628; details: ref [14]; cited from earlier work
From the text: as §1

[3] = system: sst3; parameters: method as in PMID 11980628; details: ref [14]; cited from earlier work
From the text: as §1

[4] = system: sst4; parameters: method as in PMID 11980628; details: ref [14]; cited from earlier work
From the text: as §1, with “Pasireotide is an injectable somatostatin analog. […] The” for “The”

[5] = cited from earlier work
Experimental: Differences between the results reported by Carcoforo [10] and Mahmoud and our results could be partially explained. First, the clinical practices were different. In our practice, drains were removed before the seventh post-operative day, whereas in the studies by Carcoforo [10] and Mahmoud^11 the mean duration of drainage was between 7 and 25 days. Second, the other authors both used octreotide 0.1 mg three times a day subcutaneously for 5 [10] or 7 [11] days, starting on the first postoperative day. In our study, we chose a long-acting release formulation of pasireotide (pasir ... || The gradual release form must be injected intramuscularly prior to surgery. An effective plateau concentration is obtained after 10 days regardless of the selected dosage (20, 40, or 60 mg) (3).

[6] = system: female patients undergoing mastectomy with axillary lymph node dissection for breast cancer; experiment: Phase 2 randomised trial, primary outcome: absence of post-operative axillary symptomatic lymphocele; details: versus placebo group
Experimental: All female patients for whom mastectomy and ALND were indicated were eligible for the study, including patients who had received neo-adjuvant chemotherapy. Main exclusion criteria were related to diabetes, cardiac insufficiency, disorder of cardiac conduction or hepatic failure. […] This choice of these variables was decided because they could influence the rate of post-operative lymphocele and so created bias. Randomization was carried out by the Statistics Team at Hôpital Saint Louis in charge of the project (only one randomization list for both centers). […]
The postoperative visit was 28 ± 4 days following surgery (V5), and a routine lymphocele aspiration was warranted and considered positive if the aspirated volume exceeded 120 cc. Again, data on the number of repeated lymphocele aspirations and the volume were collected, and adverse events were recorded.
The primary motivation for this sequential Bayesian strategy were: (1) the uncertainty about the effect of the procedure, (2) the small sample and (3) it allows continuous monitoring of outcomes throughout the trial. […] Additionally, based on the subsequent distribution experimental group, early stopping criteria were calculated to allow early termination of the trial for inefficacy if there was substantial evidence that the estimated response rate was unacceptably low compared to the expected minimal response rate of 60%. […]

[7] = system: female patients undergoing mastectomy with axillary lymph node dissection for breast cancer; experiment: Phase 2 trial, secondary endpoints: post-operative course (drainage, aspirations, healing, hospital stay); assay type: in vivo, human
[8] = system: female patients undergoing mastectomy with axillary lymph node dissection for breast cancer; experiment: Phase 2 trial, safety / adverse events; assay type: in vivo, human; details: treatment group; patient with insulin-dependent diabetes hospitalised for hyperglycaemia
Experimental: The screening was performed during the pre-surgical visit. At the baseline visit (V1) 7 to 10 days prior to surgery, patients signed the informed consent, and pasireotide or the placebo were injected. In addition, a blood sample for pharmacokinetic monitoring was taken. On the day of surgery or the day after surgery (V2), data concerning the operation (type of surgery, duration, intraoperative complications, type and number of drains) and recording of adverse events were performed. On the day of discharge (V3), the summary of the daily collection of postoperative data was completed (daily and total drainage volumes, dates on which drains were removed and overall duration of drainage, postoperative complications, whether aspiration of a symptomatic lymphocele was required, length of hospital stay and recording of adverse events).
A second blood sample for pharmacokinetic monitoring was taken during this visit.
Follow-up visits at 2 months (V6) allowed the recording of late adverse events.

[9] = system: patients after axillary node dissection in breast cancer; parameters: method as in PMID 12648685; details: p = 0.0001, ref [10], cited from earlier work
[10] = system: patients after axillary node dissection in breast cancer; parameters: method as in PMID 17214811; details: p = 0.0001, ref [11], cited from earlier work
[11] = system: sst2; parameters: method as in 2 sources, ref [14] = [14]; PMID 11980628; doi:10.1530/eje.0.1460707; 14 Bruns C , Lewis I , Briner U , Meno-Tetang G , Weckbecker G . SOM230: a novel somatostatin peptidomimetic with broad somatotropin release inhibiting factor (SRIF) receptor binding and a unique anti ||| ref [14] (a number printed in a supplementary file, which may have a reference list of its own: not looked up in the article's list); details: ref [14]; cited from earlier work
From the text: The five somatostatin receptors (sst 1 to 5) are expressed in various organs under normal physiological conditions. Somatostatin analogs activate these receptors, which in turn reduce cell activity and inhibit hormone synthesis. Octreotide and lanreotide, which are currently used, have strong affinities for the sst2 receptor and moderate affinities, if any, for the other receptor types. […] Like natural somatostatin and known analogs, its pharmaceutical efficacy depends on its binding to somatostatin receptors. There are five of these (sst 1 to 5); they are expressed in various bodily tissues under normal physiological conditions. Somatostatin analogs activate these receptors, which in turn reduce cell activity and inhibits hormone synthesis. (7). Octreotide and lanreotide, which are currently used, have a strong affinity for the sst2 receptor and moderate affinity, if any, for the other types.

[12] = system: renal transplantation patients; parameters: method as in PMID 16757259; details: patients treated with octreotide; ref [22]; cited from earlier work
[13] = system: women with breast cancer undergoing ALND; details: compared to placebo, p = 0.035; ref [12]; cited from earlier work
Experimental: More recently, Gauthier et al. have reported the results of a phase 3, double-blind, randomized study using Lanreotide Autogel 90 mg LAR to reduce lymphorrhea volumes in the axillary drain during the first 4 postoperative days.

[14] = pasireotide LAR 40 and 60 mg, ref [21]

NCCCC[C@@H]1NC(=O)[C@@H](Cc2c[nH]c3ccccc23)NC(=O)[C@H](c2ccccc2)NC(=O)[C@@H]2C[C@@H](OC(=O)NCCN)CN2C(=O)[C@H](Cc2ccccc2)NC(=O)[C@H](Cc2ccc(OCc3ccccc3)cc2)NC1=O [Pasireotide] (cyclo([Hyp]([CO-Ethylenediamine])[Phg][dW]KY(Bn)F))
Affinity for sst1 relative to octreotide [1]: 30 times greater
Affinity for sst5 relative to octreotide [2]: 40 times greater
Affinity for sst3 relative to octreotide [3]: 5 times greater
Affinity for sst4 [4]: none
Time to effective plateau concentration ([5]; gradual release form i.m., regardless of dosage (20, 40, or 60 mg), ref (3) Schmid et al AACE 2005): 10 days
Time of first concentration peak after administration [5, 14]: 1 days
Time of second slow-release peak with maximum concentrations [5, 14]: ~20 days
Day from which the effect was obtained after injection ([5]; pasireotide LAR, ref [21]): seventh
Duration for which the effect remained ([5]; pasireotide LAR, ref [21]): up to 30 days
Residual concentration at day 28 ([5]; patients with neuroendocrine tumors, ref [23]): 16.5 ng/mL
Decrease in symptomatic lymphocele development in treated patients [6]: 12.2%
Daily flow axillary drain ([7]; Fig 3, Day 1): 50 mL
Daily flow mastectomy drain ([7]; Fig 3, Day 1): 52,5 ml
Daily flow axillary drain ([7]; Fig 3, Day 2): 50 mL
Daily flow mastectomy drain ([7]; Fig 3, Day 2): 40 mL
Daily flow axillary drain ([7]; Fig 3, Day 3): 65 mL
Daily flow mastectomy drain ([7]; Fig 3, Day 3): 38 mL
Daily flow axillary drain ([7]; Fig 3, Day 4): 50 mL
Daily flow mastectomy drain ([7]; Fig 3, Day 4): 40 mL
Daily flow axillary drain ([7]; Fig 3, Day 5): 75 mL
Daily flow mastectomy drain ([7]; Fig 3, Day 5): 41 mL
Daily flow axillary drain ([7]; Fig 3, Day 6): 50 mL
Daily flow mastectomy drain ([7]; Fig 3, Day 6): 40 mL
Daily flow axillary drain ([7]; Fig 3, Day 7): 35 mL
Daily flow mastectomy drain ([7]; Fig 3, Day 7): 30 mL
Length of time to onset of adjuvant chemotherapy ([7]; median [IQR]): 54 [37.5,60] days
Repeated lymphocele aspirations, total volume ([7]; median [IQR]): 270 [135,415] ml
Duration of drainage, axillary drain ([7]; median [IQR], n = 42): 3 [2,5] days
Duration of drainage, mastectomy drain ([7]; median [IQR], n = 42): 2.5 [1.75,4] days
Length of the hospital stay ([7]; median [IQR], n = 42): 5 [4,6] days
Total flow, axillary drain ([7]; median [IQR], n = 42): 165 [81,400.2] ml
Total flow, mastectomy drain ([7]; median [IQR], n = 42): 132.5 [55.5,226] ml
Patients who underwent systematic lymphocele aspiration on day 28 ([7]; treatment group): Twelve
Serious adverse events [8]: one

Octreotide
Daily drainage volume ([9]; subcutaneous octreotide in immediate postoperative period, untreated group 94.6 ml): 65.4 mL
Time of drain removal after surgery ([9]; untreated group 16.7 days): 7.1 days
Need for postoperative aspiration of lymphoceles ([10]; control 90%): 40%
Mean daily drainage volume ([10]; control 145 ml): 104 mL
Total duration of drainage ([10]; control 25 days): 12.7 days
Affinity for the sst2 receptor, in words [11]: strong
Duration of lymphatic leakage following transplantation [12]: shorter duration
Incidence of lymphocele formation after drain removal [12]: lower incidence
Affinity for sst4 [4]: none

lanreotide
Lymphorrhea volume, patients who only underwent an axillary dissection [13]: significantly reduced
Affinity for the sst2 receptor, in words [11]: strong
